According to US4841067A, “Novel amino acid derivatives” (Kissei Pharmaceutical Co., Ltd., priority 1985, dated 1989):

Legend:
human renin = molecular target: T1, human renin (Homo sapiens, UniProt P00797); experiment: Human renin-sheep renin substrate reaction system in vitro (angiotensin I by radioimmunoassay); assay type: biochemical; details: pH 7.4, 37° C., 15 minutes, read-out: IC50 (molar concentration which produced 50% inhibition)
T1 sequence (P00797 67-406): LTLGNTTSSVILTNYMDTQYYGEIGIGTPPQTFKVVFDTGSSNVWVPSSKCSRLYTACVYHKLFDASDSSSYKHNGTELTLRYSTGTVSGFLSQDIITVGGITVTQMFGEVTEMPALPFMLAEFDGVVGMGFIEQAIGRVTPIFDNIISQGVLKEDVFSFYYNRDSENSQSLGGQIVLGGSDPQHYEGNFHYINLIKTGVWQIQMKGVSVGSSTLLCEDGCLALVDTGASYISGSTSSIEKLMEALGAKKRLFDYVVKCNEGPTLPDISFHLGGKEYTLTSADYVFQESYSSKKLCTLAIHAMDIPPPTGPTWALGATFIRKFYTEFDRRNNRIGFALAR
Procedure: Human renin-sheep renin substrate reaction system in vitro To a mixture containing 200 μl of a 125 mM pyrophosphate buffer (ph 7.4), 25 μl of a 20 mM aqueous solution of […] as an angiotensin converting enzyme inhibitor, 50 μl of semipurified sheep renin substrate (4400 ng angiotensin I/ml) 50 μl of dimethyl sulfoxide solution of a dipeptide of the present invention and 150 μl of deionized water was added 25 μl of purified human renin (20-30 ng angiotensin I/hr). The mixture was incubated for 15 minutes on a water bath at 37° C., and the reaction mixture was allowed to stand for 5 minutes on a water bath at 100° C. to stop the reaction. After cooling, 200 μl of the solution were taken up and the amount of angiotensin I produced by the addition of renin was determined by radioimmunoassay. The inhibitory effect was calculated by the following equation. [formula] As a control, the same procedure as above was carried out by using 50 μl of dimethyl sulfoxide alone in place of the 50 μl of dimethyl sulfoxide solution containing an amino acid derivative of the present invention. The molar concentration which produced 50% inhibition (IC50) was calculated from the inhibition value obtained, and the results are shown below.

marmoset = experiment: Hypotensive effect in marmoset (furosemide-induced high renin state, i.v. injection); assay type: in vivo, common marmoset; details: 2.5 mg/kg i.v., conscious male marmoset, furosemide pretreated
Procedure: Hypotensive effect in marmoset
The experiment was carried out by using common marmoset as described in K. G. Hofbauer et al., Clinical and Experimental Hypertension-Theory and Practice, Vol. A5, No. 7 & 8 (1983), pages 1237-1247.
Furosemide was orally administered three times to common marmoset at 15 mg per kilogram per day every other day to create a high renin state. Blood pressure of consious marmoset was measured 2 days after the last administration of furosemide.
Measurement of blood pressure
Male common marmoset weighing 325 g was lightly anesthetized by ketamine hydrochloride (Ketalar, produced by Parke Davis, 20 mg/kg i.m.), and their carotid artery and vein exposed.. Catheters being filled with a heparin solution was subcutaneously inserted into the carotid artery and vein from the dorsum. After suturing of the opened part, the marmosets were placed on a heated mat. After complete recovery from the anesthesia, an amino acid derivative of the present invention (2.5 mg/kg) was intravenously injected through the venous catheter.
The arterial catheter was connected to a pressure transducer and blood pressure was recorded on the polygraph.

CNC(=O)C(O)[C@H](CC(C)C)NC(=O)[C@H](Cc1cnc[nH]1)NC(=O)C(CC(=O)NCCc1ccccc1)Cc1cccc2ccccc12 (mixture of isomers) [(2RS,3S)-3-{N-[(+)-2-(1-naphthylmethyl)-3-(phenethylcarbamoyl)propionyl]-L-histidyl}-amino-2-hydroxy-5-methylhexanoylmethylamide]
IC50 (human renin): 700 nM

COC(=O)C(O)[C@H](CC(C)C)NC(=O)[C@H](Cc1c[nH]cn1)NC(=O)C(CC(=O)NCCc1ccccc1)Cc1cccc2ccccc12 (mixture of isomers) [methyl (2RS, 3S)-3-{N-[(+)-2-(1-naphthylmethyl)-3-(phenethylcarbamoyl)propionyl]-L-histidyl}amino-2-hydroxy-5-methylhexanoate]
IC50 (human renin): 49 nM | Diastolic blood pressure (marmoset; 1 min after injection (control 72)): 56 mm Hg | Systolic blood pressure (marmoset; 1 min after injection (control 103)): 85 mm Hg | Diastolic blood pressure (marmoset; 3 min after injection (control 72)): 61 mm Hg | Systolic blood pressure (marmoset; 3 min after injection (control 103)): 91 mm Hg | Diastolic blood pressure (marmoset; 5 min after injection (control 72)): 62 mm Hg | Systolic blood pressure (marmoset; 5 min after injection (control 103)): 92 mm Hg | Diastolic blood pressure (marmoset; 10 min after injection (control 72)): 70 mm Hg | Systolic blood pressure (marmoset; 10 min after injection (control 103)): 102 mm Hg | Diastolic blood pressure (marmoset; 15 min after injection (control 72)): 72 mm Hg | Systolic blood pressure (marmoset; 15 min after injection (control 103)): 103 mm Hg

CC(C)C[C@H](NC(=O)[C@H](Cc1c[nH]cn1)NC(=O)C(CC(=O)NCCc1ccccc1)Cc1cccc2ccccc12)C(O)C(=O)OCc1ccccc1 (single isomer, unassigned)
IC50 (human renin): 42 nM

CC(C)CCOC(=O)C(O)[C@H](CC(C)C)NC(=O)[C@H](Cc1c[nH]cn1)NC(=O)C(CC(=O)NCCc1ccccc1)Cc1cccc2ccccc12 (single isomer, unassigned)
IC50 (human renin): 61 nM

COC(=O)[C@H](O)[C@H](CC(C)C)NC(=O)[C@H](Cc1cnc[nH]1)NC(=O)C(CC(=O)NCCc1ccccc1)Cc1cccc2ccccc12 (single isomer, unassigned)
IC50 (human renin): 31 nM

COC(=O)[C@@H](O)[C@H](CC(C)C)NC(=O)[C@H](Cc1cnc[nH]1)NC(=O)C(CC(=O)NCCc1ccccc1)Cc1cccc2ccccc12 (single isomer, unassigned)
IC50 (human renin): 1300 nM

CC(C)C[C@H](NC(=O)[C@H](Cc1cnc[nH]1)NC(=O)C(CC(=O)NCCc1ccccc1)Cc1cccc2ccccc12)C(O)C(=O)NCc1ccccc1 (single isomer, unassigned)
IC50 (human renin): 100 nM

CC(C)CCNC(=O)C(O)[C@H](CC(C)C)NC(=O)[C@H](Cc1cnc[nH]1)NC(=O)C(CC(=O)NCCc1ccccc1)Cc1cccc2ccccc12 (single isomer, unassigned)
IC50 (human renin): 250 nM

CC(C)C[C@H](NC(=O)[C@H](Cc1cnc[nH]1)NC(=O)C(CC(=O)NCCc1ccccc1)Cc1cccc2ccccc12)C(O)C(=O)N(C)C (single isomer, unassigned)
IC50 (human renin): 2800 nM

CNC(=O)C(O)[C@H](CC(C)C)NC(=O)[C@H](Cc1cnc[nH]1)NC(=O)C(CC(=O)NCCc1ccccc1)Cc1cccc2ccccc12 (single isomer, unassigned) [listing 1 of 2 here]
IC50 (human renin): 4500 nM

CNC(=O)C(O)[C@H](CC(C)C)NC(=O)[C@H](Cc1cnc[nH]1)NC(=O)C(CC(=O)NCCc1ccccc1)Cc1cccc2ccccc12 (single isomer, unassigned) [listing 2 of 2 here]
IC50 (human renin): 390 nM

CC(C)C[C@H](NC(=O)[C@H](Cc1c[nH]cn1)NC(=O)C(CC(=O)NCCc1ccccc1)Cc1cccc2ccccc12)[C@@H](O)CCO (single isomer, unassigned)
IC50 (human renin): 5900 nM

COCC(O)[C@H](CC(C)C)NC(=O)[C@H](Cc1cnc[nH]1)NC(=O)C(CC(=O)NCCc1ccccc1)Cc1cccc2ccccc12 (single isomer, unassigned) [(2RS, 3S)-3-{N-(+)-2-(1-Naphthylmethyl)-3-(phenethylcarbamoyl)propionyl]-L-histidyl}amino-2-hydroxy-5-methylhexyl methyl ether]
IC50 (human renin): 790 nM

CC(C)CCOCC(O)[C@H](CC(C)C)NC(=O)[C@H](Cc1c[nH]cn1)NC(=O)C(CC(=O)NCCc1ccccc1)Cc1cccc2ccccc12 (single isomer, unassigned) [(2RS, 3S)-3-{N-[(+)-2-(1-Naphthylmethyl)-3-(phenethylcarbamoyl)propionyl]-L-histidyl}amino-2-hydroxy-5-methylhexyl isoamyl ether]
IC50 (human renin): 280 nM

CC(C)C[C@H](NC(=O)[C@H](Cc1c[nH]cn1)NC(=O)C(CC(=O)NCCc1ccccc1)Cc1cccc2ccccc12)C(O)CO (single isomer, unassigned) [(2RS, 3S)-3-{N-[(+)-2-(1-naphthylmethyl)-3-(phenethylcarbamoyl)propionyl]-L-histidyl}amino-2-hydroxy-5-methylhexanol]
IC50 (human renin): 590 nM

CC(C)C[C@H](NC(=O)[C@H](Cc1cnc[nH]1)NC(=O)C(CC(=O)NCCc1ccccc1)Cc1cccc2ccccc12)C(O)COCc1ccccc1 (single isomer, unassigned) [(2RS, 3S)-3-{N-[(+)-2-(1-naphthylmethyl)-3-phenethylcarbamoyl)propionyl]-L-histidyl}amino-2-hydroxy-5-methylhexyl benzyl ether]
IC50 (human renin): 470 nM

CC(C)C[C@H](NC(=O)[C@H](Cc1cnc[nH]1)NC(=O)C(CC(=O)NCCc1ccccc1)Cc1cccc2ccccc12)C(O)CNCc1ccccc1 (single isomer, unassigned) [(2RS, 3S)-N-Benzyl-3-{N-[(+)-2-(1-naphthylmethyl)-3-(phenethylcarbamoyl)propiobnyl]-L-histidyl}amino-2-hydroxyl-5-methylhexylamine]
IC50 (human renin): 150 nM

CC(C)CCNCC(O)[C@H](CC(C)C)NC(=O)[C@H](Cc1cnc[nH]1)NC(=O)C(CC(=O)NCCc1ccccc1)Cc1cccc2ccccc12 (single isomer, unassigned) [(2RS, 3S)-N-Isoamyl-3-{N-[(+)-2-(1-naphthylmethyl)-3-(phenethylcarbamoyl)propionyl]-L-histidyl}-amino-2-hydroxy-5-methylhexylamine]
IC50 (human renin): 350 nM

COC(=O)C[C@H](O)[C@H](CC(C)C)NC(=O)[C@H](Cc1cnc[nH]1)NC(=O)C(CC(=O)NCCc1ccccc1)Cc1cccc2ccccc12 (single isomer, unassigned) [Methyl N-[(+)-2-(1-naphthylmethyl)-3-(phenethylcarbamoyl)propionyl]-L-histidylstatinate]
IC50 (human renin): 310 nM

CC(C)CCNC(=O)C[C@H](O)[C@H](CC(C)C)NC(=O)[C@H](Cc1cnc[nH]1)NC(=O)C(CC(=O)NCCc1ccccc1)Cc1cccc2ccccc12 (single isomer, unassigned) [N-[(+)-2-(1-Naphthylmethyl)-3-(phenethylcarbamoyl)propionyl]-L-histidylstatylisoamylamide]
IC50 (human renin): 72 nM

CNC(=O)C[C@H](O)[C@H](CC(C)C)NC(=O)[C@H](Cc1cnc[nH]1)NC(=O)C(CC(=O)NCCc1ccccc1)Cc1cccc2ccccc12 (single isomer, unassigned) [N-[(+)-2-(1-Naphthylmethyl)-3-(phenethylcarbamoyl)propionyl]-L-histidylstatylmethylamide]
IC50 (human renin): 740 nM
